Data as given in ChEMBL document CHEMBL5316263, “Structure-Based Discovery of Selective Histone Deacetylase 8 Degraders with Potent Anticancer Activity” (J Med Chem, 2023).
Active and inactive are the calls of the source. No cut-off for these calls is given here.

Legend:
Type in all cases: cell-based
[1] = target: T1, Protein cereblon/Histone deacetylase 8 (Homo sapiens) (UniProt Q9BY41+Q96SW2); test: Protac activity at CRBN/HDAC8 in human A549 cells assessed as degradation of HDAC8 at 200 nM measured after 20 hrs by Western blot analysis relative to control
T1 sequence (Q96SW2 whole entry, looked up, one chain of several): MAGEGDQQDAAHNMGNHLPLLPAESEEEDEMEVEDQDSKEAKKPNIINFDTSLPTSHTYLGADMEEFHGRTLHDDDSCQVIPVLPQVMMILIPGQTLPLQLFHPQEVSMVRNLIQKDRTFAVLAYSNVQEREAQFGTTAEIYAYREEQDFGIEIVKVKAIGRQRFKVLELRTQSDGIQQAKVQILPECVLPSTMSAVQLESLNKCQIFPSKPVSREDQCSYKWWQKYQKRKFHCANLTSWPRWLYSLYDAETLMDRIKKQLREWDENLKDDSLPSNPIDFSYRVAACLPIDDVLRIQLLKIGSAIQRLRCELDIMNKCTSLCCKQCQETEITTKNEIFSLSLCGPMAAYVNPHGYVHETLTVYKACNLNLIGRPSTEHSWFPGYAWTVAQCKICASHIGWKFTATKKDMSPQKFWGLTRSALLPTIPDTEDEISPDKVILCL

[2] = target: T1, Protein cereblon/Histone deacetylase 8 (Homo sapiens); test: Protac activity at CRBN/HDAC8 in human A549 cells assessed as degradation of HDAC8 at 2 uM measured after 20 hrs by Western blot analysis relative to control
[3] = target: T2, von Hippel-Lindau disease tumor suppressor/Histone deacetylase 8 (Homo sapiens) (UniProt Q9BY41+P40337); test: Protac activity at VHL/HDAC8 in human A549 cells assessed as degradation of HDAC8 at 200 nM measured after 20 hrs by Western blot analysis relative to control
T2 sequence (P40337 whole entry, looked up, one chain of several): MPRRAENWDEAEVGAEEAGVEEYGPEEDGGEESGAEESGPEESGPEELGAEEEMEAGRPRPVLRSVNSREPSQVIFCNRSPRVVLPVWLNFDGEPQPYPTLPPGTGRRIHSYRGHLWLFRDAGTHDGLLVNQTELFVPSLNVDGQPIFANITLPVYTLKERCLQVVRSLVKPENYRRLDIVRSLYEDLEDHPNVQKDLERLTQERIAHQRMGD

[4] = target: T2, von Hippel-Lindau disease tumor suppressor/Histone deacetylase 8 (Homo sapiens); test: Protac activity at VHL/HDAC8 in human A549 cells assessed as degradation of HDAC8 at 2 uM measured after 20 hrs by Western blot analysis relative to control
[5] = target: T3, Histone deacetylase 8 (Homo sapiens) (UniProt Q9BY41); test: Induction of degradation in HDAC8 in human A549 cells at 200 nM measured after 20 hrs by Western blot analysis relative to control
T3 sequence (whole entry): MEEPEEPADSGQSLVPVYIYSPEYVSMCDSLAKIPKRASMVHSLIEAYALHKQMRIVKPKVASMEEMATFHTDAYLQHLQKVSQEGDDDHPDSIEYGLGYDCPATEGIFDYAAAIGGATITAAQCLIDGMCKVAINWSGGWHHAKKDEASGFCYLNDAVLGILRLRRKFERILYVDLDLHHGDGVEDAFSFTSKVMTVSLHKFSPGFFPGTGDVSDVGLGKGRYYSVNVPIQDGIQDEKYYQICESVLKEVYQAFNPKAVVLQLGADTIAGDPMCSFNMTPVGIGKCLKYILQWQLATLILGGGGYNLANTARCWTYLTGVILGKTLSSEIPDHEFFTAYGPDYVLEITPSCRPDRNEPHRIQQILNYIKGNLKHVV

[6] = target: T3, Histone deacetylase 8 (Homo sapiens); test: Induction of degradation in HDAC8 in human A549 cells at 2 microM measured after 20 hrs by Western blot analysis relative to control
[7] = target: T3, Histone deacetylase 8 (Homo sapiens); test: Induction of degradation in HDAC8 in human A549 cells at 10 uM incubated for 2 hrs by Western blot analysis
[8] = target: Protein cereblon/Histone deacetylase 8 (Homo sapiens, UniProt Q96SW2+Q9BY41); test: Protac activity at CRBN/HDAC8 in human A549 cells assessed as degradation of HDAC8 incubated for 20 hrs by ELISA method
Chain of Protein cereblon/Histone deacetylase 8 (Q96SW2 whole entry, one chain of several): as the sequence (Q96SW2 whole entry, looked up, one chain of several) above

Activity [1] [%]	Activity [2] [%]	Activity [3] [%]	Activity [4] [%]	Structure (SMILES)	further results
		27.3	51.4	Cc1ncsc1-c1ccc([C@H](C)NC(=O)[C@@H]2C[C@@H](O)CN2C(=O)[C@@H](NC(=O)CCCCCOc2ccc(Cn3ccc4ccc(C(=O)NO)cc43)cc2)C(C)(C)C)cc1	
		28.6	72.9	Cc1ncsc1-c1ccc([C@H](C)NC(=O)[C@@H]2C[C@@H](O)CN2C(=O)[C@@H](NC(=O)COCCOCCOCCOCCOc2ccc(Cn3ccc4ccc(C(=O)NO)cc43)cc2)C(C)(C)C)cc1	
28.5	59.7			O=C1CCC(N2C(=O)c3cccc(NCc4cn(CCCCCCOc5ccc(Cn6ccc7ccc(C(=O)NO)cc76)cc5)nn4)c3C2=O)C(=O)N1 (configuration not stated)	EC50 [8]: 580 nM
		31.3	75.3	Cc1ncsc1-c1ccc([C@H](C)NC(=O)[C@@H]2C[C@@H](O)CN2C(=O)[C@@H](NC(=O)COCCOCCOc2ccc(Cn3ccc4ccc(C(=O)NO)cc43)cc2)C(C)(C)C)cc1	
		34.6	75.7	Cc1ncsc1-c1ccc([C@H](C)NC(=O)[C@@H]2C[C@@H](O)CN2C(=O)[C@@H](NC(=O)CCCCOc2ccc(Cn3ccc4ccc(C(=O)NO)cc43)cc2)C(C)(C)C)cc1	

Continued, compound first:

Structure (SMILES)	Activity [1] [%]	Activity [2] [%]	Activity [3] [%]	Activity [4] [%]	further results
O=C1CCC(N2C(=O)c3cccc(NCCc4cn(CCCCCOc5ccc(Cn6ccc7ccc(C(=O)NO)cc76)cc5)nn4)c3C2=O)C(=O)N1 (configuration not stated)	28	78.4			
O=C1CCC(N2C(=O)c3cccc(NCc4cn(CCOCCOCCOc5ccc(Cn6ccc7ccc(C(=O)NO)cc76)cc5)nn4)c3C2=O)C(=O)N1 (configuration not stated)	42.5	70.8			
O=C1CCC(N2C(=O)c3cccc(NCCc4cn(CCOCCOc5ccc(Cn6ccc7ccc(C(=O)NO)cc76)cc5)nn4)c3C2=O)C(=O)N1 (configuration not stated)	29.4	71.2			
Nc1cccc2c1C(=O)N(C1CCC(=O)NC1=O)C2=O (configuration not stated)					Activity [5]: 9.5%; Activity [6]: 12.8%; Activity [7]: inactive
O=C1CCC(N2C(=O)c3cccc(NCc4cn(CCOCCOCCOCCOCCOc5ccc(Cn6ccc7ccc(C(=O)NO)cc76)cc5)nn4)c3C2=O)C(=O)N1 (configuration not stated)	39.4	80.2			
